What was measured:
CXCR4 tropic HIV NL4-3 = test: HIV-infection study in HeLa37 cells (HIV antigen-positive cell count, % control); assay type: cell-based, HIV-1; conditions: for TI (therapeutic index, cytotoxicity/antiviral activity): CC50/IC50; for IC50: Human immunodeficiency virus 1, NL43, HeLa37 cells, 40 h, MOI=0.01, FIG. 1/FIG. 2, read-out: IC50 (anti-HIV activity)
Experimental: Stocks of HIV-1 were generated by transfecting a 150 cm plate of 80% confluent HEK 293T cells with 75 μg of the HIV molecular clone pNL4-3 by using the CaPO4 procedure of F. L. Graham et al., J. Gen. Viol., 36, 59 (1977). Supernatants were collected at 48-h post-transfection, clarified to remove cell debris and frozen at −80° C. until needed. Virus production was assessed by reverse transcriptase activity in the viral stocks and by the single round of infection assay in HeLa37 cells described below. RT assays were performed as described by R. L. Wiley, PNAS USA, 83, 5038 (1986).
(§1) All extracts or fractions were resuspended in DMSO. 2.5×10^2 infectious particles of HIV (MOI=0.01) were combined with the concentrations of IA or IB noted in the figures. The amount of DMSO was adjusted so that equivalent concentrations of DMSO were used in all wells. […] The tannin and HIV mixture was added to 2.5×10^4 cells/well of HeLa37 cells in a 48-well format. The cells were maintained for 40 h at 37° C. in a CO2 incubator. Cells were fixed in 75% acetone/25% water and immunostained for HIV antigens with human anti-HIV antisera (1:500) followed by HRP-conjugated goat anti-human IgG (1:500). 3-amino-9-ethyl-carbazole was used as the horse radish peroxidase substrate. Plates were dried and wells were counted for the number of HIV antigen-positive cells.

[1] = Cell-viability study (ATPLite Assay); assay type: cell-based; conditions: human; HeLa37 cells, 40 h after treatment initiation
Experimental: HeLa37 cells were plated and treated with IA or IB as described above. Cell viability was monitored at 40 h after treatment initiation by ATPLite Assay (Packard Biosciences) per manufacturer's instructions.

CCR5 tropic HIV AD8 = test: HIV-infection study in HeLa37 cells, CCR5 tropic virus; assay type: cell-based; conditions: FIG. 2; equivalent concentrations
Experimental: as §1

SMILES | TI (therapeutic index, cytotoxicity/antiviral activity) (CXCR4 tropic HIV NL4-3) | IC50 (CXCR4 tropic HIV NL4-3) | CC50 at 40 h [1] | Inhibition of CCR5 (AD8) tropic HIV strain (CCR5 tropic HIV AD8) | Inhibition of CXCR4 (NL4-3) tropic HIV strain (CXCR4 tropic HIV NL4-3; FIG. 2) | Enhancement of the antiviral activity of AMD3100 (CXCR4 tropic HIV NL4-3; combination with 3 μM AMD3100, increasing concentrations of IB, HIV NL-4-3, FIG. 3)
CO[C@@H]1OC2COC(=O)c3cc(O)c(O)c(O)c3-c3c(cc(O)c(O)c3O)C(=O)O[C@H]2C(O)C1O (stereo partly drawn) [Tannin IA, (11aR,13S,14R,15R,15aS)-2,3,4,5,6,7,14,15-octahydroxy-13-methoxy-11,11a,13,14,15,15a-hexahydrodibenzo[g,i]pyrano[3,2-b][1,5]dioxacycloundecine-9,17-dione] | ~909 | ~110 nM | ~100000 nM | – | – | –
CO[C@@H]1OC2COC(=O)c3cc(O)c(O)c(O)c3-c3c(cc(O)c(O)c3O)C(=O)O[C@H]2C(OC(=O)c2cc(O)c(O)c(O)c2)C1OC(=O)c1cc(O)c(O)c(O)c1 (stereo partly drawn) [Tannin IB, (11aR,13S,14R,15S,15aR)-2,3,4,5,6,7-hexahydroxy-13-methoxy-9,17-dioxo-9,11,11a,13,14,15,15a,17-octahydrodibenzo[g,i]pyrano[3,2-b][1,5]dioxacycloundecine-14,15-diyl-bis (3,4,5-trihydroxybenzoate)] | about 900 | ~120 nM | > 100000 nM | effectively able to inhibit | effectively able to inhibit | more than a log

Reference: patent US9370529B2, “Tannin inhibitors of HIV” (priority 2012, dated 2016)
